One assay has as its system primary mouse islets. The assay can be described thus: Static GSIS test using primary mouse islets. The assay is classed as cell-based. The note with it: FKN 100 ng/ml; PTX 250 ng/ml, Wortmannin 10 μM, PD98059 50 μM.
The test system of assay [1] is Min6 cells. In words: GSIS test using Min6 cells. It counts as cell-based, mouse. The settings on record: for glucose- and arginine plus glucose-stimulated insulin secretion: U0126 10 μM, arginine 10 mM, glucose 16.7 mM.
Experimental: (FIG. 6B) GSIS test using Min6 cells with or without FKN (100 ng/ml) or U0126 (10 μM). Mean+/−SEM.
Min6 cells were incubated in 2.8 mM glucose media with or without U0126 (10 μM) for 30 minutes, and then subjected to intracellular calcium measurement in the presence or absence of arginine (10 mM) and/or high glucose (16.7 mM) challenge.
The test system of assay [2] is Min6 cells. The assay can be described thus: Palmitate-induced ICER-1 and beta cell gene expression in Min6 cells (quantitative realtime RT-PCR). The assay is classed as cell-based, mouse. The settings on record: palmitate 0.4 mM, FKN 100 ng/ml, U0126 10 μM, 48 h.
Experimental: Min6 cells were incubated with palmitate (Pal; 0.4 mM) in the presence or absence of FKN (100 ng/ml) or U0126 (10 μM). 48 h later, cells were harvested and subjected to quantitative realtime RT-PCR.
For assay [3], the system named is Min6 cells. In words: Intracellular calcium level measurement (fura-2) in Min6 cells. The assay is classed as cell-based, mouse. On the technique in general: A change in cytosolic calcium serves as a functional read-out for many receptors and channels.
Experimental: (FIGS. 6C to 6I) Intracellular calcium level in Min6 mouse beta cells in the presence or absence of glucose (FIG. 6C, with glucose; FIG. 6D, without glucose), nimodipine (10 μM) (FIG. 6E), control antibody (FIG. 6F), anti-CX3CR1 neutralizing antibody (FIG. 6G), PTX (250 ng/ml) (FIG. 6H), or U0126 (10 μM) (FIG. 6I). Mean+/−SEM.
(FIGS. 15A-1 to 15B-3) Intracellular calcium level in Min6 cells. Min6 cells were incubated in 2.8 mM glucose media with or without U0126 (10 μM) for 30 minutes, and then subjected to intracellular calcium measurement in the presence or absence of arginine (10 mM) and/or high glucose (16.7 mM) challenge. (FIGS. 15A-1 to 15A-3) Intracellular calcium level with arginine treatment. (FIGS. 15B-1 to 15B-3) Intracellular calcium level with arginine plus high glucose (16.7 mM) treatment. Area under the curve for first 90 (FIG. 15B-1) or 60 (FIG. 15B-2) seconds was graphed in FIG. 15B-3.
The Cytoplasmic free calcium ion concentration in Min6 cells was measured by fura-2 fluorescence ratio digital imaging. Briefly, Min6 cells, grown on coverslips, were loaded with 5 μM fura-2 AM [dissolved in 0.01% Pluronic F-127 plus 0.1% DMSO in KRB] at room temperature for 60 min and then washed in fresh KRB for 30 min. The coverslips with Min6 cells were mounted in a perfusion chamber on a Nikon microscope stage.
Assay [4] relates to Min6 cells. The assay can be described thus: ERK phosphorylation western blot in Min6 cells. It counts as cell-based, mouse. The note with it: PTX 250 ng/ml pre-treatment 15 min. Here is the method: FIG. 14. FKN stimulates ERK phosphorylation in a PTX-sensitive manner (related to FIGS. 6A-1 to 6Q-4). Min6 cells were pre-treated with DMSO (control), U0126 (10 μM), or PTX (250 ng/ml) for 15 min, and then incubated with or without FKN (100 ng) for 15 min. Cells were harvested and subjected to western blot.
(In general: A western blot detects proteins with antibodies after separation by electrophoresis.)

The subject of a further assay is human islets. In words: Static GSIS studies using human islets. It counts as cell-based.

“Also recorded” adds a separate entry of the source. Like-named read-outs stand apart in the source and are kept apart here.

Experimental for primary mouse islets: (FIGS. 6A-1 to 6A-4) GSIS test using primary mouse islets with or without pertussis toxin (PTX; 250 ng/ml), Wortmannin (Wort; 10 μM), or PD98059 (50 μM), in the presence or absence of FKN (100 ng/ml). Mean+/−SEM, n=6 per group.
Isolated mouse islets were cultured overnight in mouse islet media (DMEM containing 1 g/L glucose, 10% v/v FBS, 0.1% v/v Penicillin/Streptomycin).

Turning to `COc1cccc(-c2cc(=O)c3ccccc3o2)c1N` [PD98059], in the assay with primary mouse islets, the “effect of inhibitor on FKN-stimulated insulin secretion” value is on record as “inhibited”.
With `N#CC(=C(/N)Sc1ccccc1N)/C(C#N)=C(\N)Sc1ccccc1N` [U0126], the “effect on FKN potentiation of glucose and GLP1-induced insulin secretion” value in the assay with Min6 cells [1] (FIG. 6B: U0126 10 μM, FKN 100 ng/ml) is given as “suppressed”. Further, the “glucose- and arginine plus glucose-stimulated insulin secretion” value in the assay with Min6 cells [1] is reported as “reduces”; in the assay on Min6 cells [1] (listed as MEK inhibitor), “attenuated”. In addition, in the assay with Min6 cells [2], the “effect of MEK inhibitor on FKN effects on ICER-1, NeuroD, PDX-1 and Glut2 expression” value is reported as “abolished”. For the same molecule, the “arginine plus glucose-stimulated intracellular calcium increase” value with Min6 cells [3] is listed as “attenuated; also recorded: reduces”. Besides, in the assay with Min6 cells [3], the “effect on FKN-induced intracellular calcium increase” value is reported as “blocked”.
For pertussis toxin, in the assay with Min6 cells [3] (PTX 250 ng/ml, U0126 10 μM, anti-CX3CR1 antibody vs control antibody), the “effect on FKN-induced intracellular calcium increase” value is given as “blocked”. Moreover, in the assay on Min6 cells [4], the “sensitivity of FKN-stimulated ERK phosphorylation to inhibitor” value is “PTX-sensitive”. Besides, in the assay with primary mouse islets, the “effect of inhibitor on FKN-stimulated insulin secretion” value is “inhibited”.

B1: human FKN: human fractalkine used on isolated human islets (100 or 400 ng/ml) (protein, UniProt P78423 25-397, looked up)
Fractalkine: QHHGVTKCNITCSKMTSKIPVALLIHYQQNQASCGKRAIILETRQHRLFCADPKEQWVKDAMQHLDRQAAALTRNGGTFEKQIGEVKPRTTPAAGGMDESVVLEPEATGESSSLEPTPSSQEAQRALGTSPELPTGVTGSSGTRLPPTPKAQDGGPVGTELFRVPPVSTAATWQSSAPHQPGPSLWAEAKTSEAPSTQDPSTQASTASSPAPEENAPSEGQRVWGQGQSPRPENSLEREEMGPVPAHTDAFQDWGPGSMAHVSVVPVSSEGTPSREPVASGSWTPKAEEPIHATMDPQRLGVLITPVPDAQAATRRQAVGLLAFLGLLFCLGVAMFTYQSLQGCPRKMAGEMAEGLRYIPRSCGSNSYVLVPV
For the molecule B1, the “increase in GSIS” value in the assay on human islets (at the maximal concentration (100 or 400 ng/ml tested)) is 65%. The GSIS dose response result in the assay on human islets (human FKN 100 or 400 ng/ml) is listed as “dose responsive increase”.
